Measured values as given in US12642860B2, “Filamentous nanostructures and their use for treatment of pulmonary disease” (THE JOHNS HOPKINS UNIVERSITY, priority 2019, dated 2026).
Non-standard residues stand in square brackets, D forms with d. Residues, ends and D or L forms follow the SMILES beside them. ξ: configuration not given here. *: point of attachment. X2 = CCCC1O[C@@H]2C[C@H]3[C@@H]4CCC5=CC(=O)C=C[C@]5(C)[C@H]4[C@@H](O)CC3(C)C2(C(=O)COC(=O)OCCS*)O1; Lauroyl = CCCCCCCCCCCC(=O)*; X1 = COCCOCCOCCOCCOCCC(=O)*; ξE = NC(CCC(=O)O)C(=O)O; ξQ = NC(=O)CCC(N)C(=O)O; ξD = NC(CC(=O)O)C(=O)O; ξL = CC(C)CC(N)C(=O)O; ξK = NCCCCC(N)C(=O)O; ξV = CC(C)C(N)C(=O)O; ξP = O=C(O)C1CCCN1

How the values were obtained:
Assay type in all cases: physicochemical
[1] = TEM morphology of filaments after jet nebulization; settings: 500 μM, jet nebulization 10 min, mist and reservoir
Text: (§1) Since the supramolecular filament compositions are several microns long and are formed through non-covalent interactions, their structural integrity may be influenced by a number of factors during nebulization, such as agitation and aerosol formation. Thus, we first assessed the structural stability of these systems while traveling in aerosol droplets generated by a jet nebulizer. Nebulizers are commonly employed medical devices for producing liquid aerosol droplets containing therapeutics via high velocity airflow through the device nozzle. Droplets very large in diameter impact baffles and/or the walls of the nebulizer and are recycled back into the device's reservoir, but droplets small enough to circumvent these barriers (typically ranging in diameter from 1 to 10 μm) exit the device as a respirable aerosol. Therefore, we characterized two groups of structures after nebulization: the exiting mist and the leftover solution in the reservoir. Filament compositions in solutions diluted down to 500 µM of the different PAs were loaded into a jet nebulizer and nebulized for 10 minutes, and the mist and leftover reservoir solutions were collected and subsequently analyzed with TEM. […] For both the nebulized and reservoir populations, we see the introduction of short bundled fibrils, worm-like micelles, and spherical micelles (spherical micelles depicted in FIG. 7).
After encapsulation, we used TEM imaging to confirm self-assembly of the system into filamentous nanostructures. […] Spherical micelles are still observed, but the fibril and worm-like structures are not. […] In terms of delivering therapeutics in an aerosol, this presents an effective strategy for improving structural stability of supramolecular peptide-based assemblies during nebulization.

[2] = Critical assembly concentration (CAC) by Nile Red assay; settings: in water
Text: FIGS. 17A-17C depict the critical assembly concentration (CAC) of (17A) EPA, (17B) OPA, and (17C) KPA molecules in water as measured from a Nile Red assay. A fluorescence intensity maximum is shifted from a wavelength of 660 nm to 635 nm as Nile Red dye becomes encapsulated within the supramolecular structures of the peptide amphiphiles (PAs). Blue line represents region of concentrations where Nile Red remains in solution; red line represents region where Nile Red is encapsulated. Data are given as mean±SD (n=3).
Therefore, we assessed the thermodynamic stability of each supramolecular filament system by measuring their critical assembly concentration (CAC) using a Nile Red assay. As shown in FIGS. 17A-C, the CAC values of EPA, OPA, and KPA were measured to be 1 μM, 1.9 μM, and 40 μM, respectively. Data from the Nile Red assay are given in full in FIG. 18. The differences in CAC between the different PAs are likely reflective of differences in electrostatic repulsion between the charged groups of EPA and KPA and steric effects with respect to the size of the OEG groups of the OPA molecule.^74 We find a direct correlation between the CAC value and nebulization stability of the supramolecular filaments with respect to nanostructure integrity and hydrogen bonding interactions. […] As the CAC value represents the propensity of the monomer units to aggregate in solution, increasing the strength of hydrophobic interactions alongside other non-covalent interactions through molecular engineering can result in lower CAC systems, and thus create supramolecular filament systems with enhanced stability during aerosol formation.

[3] = Contour length analysis of filaments in TEM images after jet nebulization; settings: jet nebulization 10 min, mean±SD; for average contour length, exiting the nebulizer as a mist: nebulized mist population; for average contour length, leftover in the reservoir: reservoir population
Text: FIGS. 12A-12F are contour length reduction analyses of (12A) EPA, (12B) OPA, and (12C) KPA filaments after nebulization, comparing the nebulized (red) and reservoir (blue) populations' size distributions (20 bins, 50 nm each). Nebulized populations measured shorter on average compared to the reservoir populations. Average contour lengths (μ) given as mean±SD alongside medians (M) for each population (****p<0.0001, two-tail unpaired t test; EPA: nN=316, nR=316; OPA: nN=311, nR=339; KPA: nN=377, nR=369). Dynamic light scattering measurements of (12D) EPA, (12E) OPA, and (12F) KPA over the course of a 10 min nebulization event as collected every 2 min, showing consistent filament breakdown over time. Data are normalized to molar scattering rate of filaments at t=0 min and given as mean±SD (p>0.05, two-way ANOVA, n=3).
as §1
Filaments before nebulization were not measured, as accurate contour lengths could not be determined, since the filaments are over several microns long. For all three systems, the nebulized population was measured to be on average shorter than its respective reservoir population. […] The EPA, OPA, and KPA filaments averaged around 287±147 nm, 174±103 nm, and 133±108 nm, respectively, exiting the nebulizer as a mist and around 360±177 nm, 206±88 nm, and 196±113 nm, respectively, leftover in the reservoir. For the KPA system, spherical micelles were omitted from this analysis as they bias the distribution representation toward non-filamentous structures.

[4] = Circular dichroism of filaments before and after nebulization; settings: for CD signal immediately after nebulization, mist / CD signal immediately after nebulization, reservoir: 500 μM, 10 min nebulization; for CD signal immediately after nebulization, mist: filaments collected in the mist; for CD signal immediately after nebulization, reservoir: filaments leftover in the reservoir; for CD signal 2 weeks after nebulization: same solutions aged additional 2 weeks at room temperature
Description: FIGS. 13A-13C show circular dichroism (CD) spectra of the supramolecular filament systems before and immediately after nebulization (solid lines) alongside the same solutions 2 weeks later (dashed lines). All filaments were nebulized at 500 µM for 10 min. Data given are mean spectra for each solution (n=3). (13A) EPA filaments before and after nebulization, showing preservation of β-sheet character during nebulization. (13B) OPA filaments before and after nebulization, showing retention of β-sheet character with a temporary increase in CD signal. (13C) KPA filaments before and after nebulization, showing a transition from β-sheet to random coil for the nebulization group and weakened β-sheet hydrogen bonding for the reservoir group.
While we were able to directly observe filament breakdown in terms of length, we investigated further the impact nebulization may have on the molecular packing of the PA monomers within the supramolecular filaments. FIG. 13 contains the representative circular dichroism (CD) spectra of the three filament systems before and after a 10 min nebulization event of both filaments that exit as mist and those leftover in the reservoir. EPA, OPA, and KPA filaments before nebulization show primarily β-sheet characteristic hydrogen bonding, as evidenced by a negative peak around 220 nm and a positive peak around 197 nm for each system. […] This slightly contrasts from the behavior observed for the EPA filaments and is likely attributed to the potential alignment of OEG chains of OPA from aerosol formation forces, which reduces steric repulsion between OPA monomers. […] This is corroborated by the morphologies observed for the KPA filaments after nebulization, as smaller worm-like micelles and spherical micelles were generated. The strength of the hydrogen-bonding network within the supramolecular filaments is evidently important in the maintenance and stabilization of β-sheet character after nebulization.
To gain insight into the thermodynamic stability of the new assembly states induced by nebulization, we analyzed the CD signal of the same filament solutions after nebulization after aging for an additional 2 weeks in solution at room temperature. […] Additionally, the shorter EPA and OPA filaments are still observed in the nebulized and reservoir groups with TEM imaging after 2 weeks (FIGS. 14 and 15). […] Since a transition back to β-sheet character is not observed for the nebulized group, it is likely that nebulization induces the formation of new metastable assemblies of the KPA monomers, which is corroborated by TEM images of the KPA filaments 2 weeks after nebulization, as the fibril, worm-like micelle, and spherical micelle structures are still observed (FIG. 16).

[5] = Dynamic light scattering molar scattering rate during nebulization; settings: measured every 2 min for 10 min nebulization
Description: We next investigated whether this filament breakdown was consistent over the course of a nebulization event. We measured the molar scattering rate of the filaments with dynamic light scattering (DLS) every 2 min for a total 10 min as a measure of assembly size, as larger filamentous assemblies will scatter light more strongly than smaller ones. The molar scattering rate represents the scattering rate normalized to the sample concentration and is used here, since the DLS software uses models for fitting spherical particles and our structures are anisotropic. […] In terms of delivering supramolecular filament systems with a jet nebulizer for treatment administration, the consistent filament breakdown over the course of a nebulization event is promising in regard to aerosol delivery, as the filaments are released reliably with a relatively uniform size drop over time from the device.

[6] = Loading capacity of drugs/dye within KPA filaments; settings: encapsulated in KPA filaments, % by mass
Text: FIGS. 20A-20C show (20A) the molecular structure of the lung disease-relevant drugs and fluorescent dye used in loading within the supramolecular filaments: paclitaxel (PTX, MW=853.92 g/mol), the anticancer drug; coumarin 6 (Cou6, MW=350.44 g/mol), the green fluorescent dye; and budesonide (BUD, MW=430.54 g/mol), the anti-inflammatory glucocorticoid used to treat symptoms of asthma and chronic obstructive pulmonary disease (top). (20B) The encapsulation process of hydrophobic drugs and dyes within supramolecular peptide amphiphile (PA)-based filaments, where dissolution of PA monomers and drug/dye in aqueous solutions results in their self-assembly with the drug/dye loaded within the hydrophobic core (left). The loading capacity of PTX, Cou6, and BUD based on mass (left axis, solid bars) and mole (right axis, checkered bars) percent within KPA supramolecular filaments (right). Data are given as mean±SD (n=5). (20C) Representative transmission electron microscopy (TEM) images of KPA filaments loaded with PTX (i, ii), Cou6 (iii, iv), and BUD (v, vi) before and after nebulization at 500 μM. Diameters are given as mean±SD (n=35).
With better insight into nebulization stability and the mechanism of supramolecular filament breakdown, we next sought to assess whether these systems can successfully carry drugs and dyes within aerosol droplets for potential inhalation-based therapies. […]

Row | SMILES | structure/morphology after nebulization (TEM) [1] | critical assembly concentration (CAC) [2] [µM] | average contour length, exiting the nebulizer as a mist [3] | average contour length, leftover in the reservoir [3] | CD signal immediately after nebulization, mist [4] | CD signal immediately after nebulization, reservoir [4] | CD signal 2 weeks after nebulization [4] | filament breakdown over time (molar scattering rate, DLS) [5] | loading capacity by mass within KPA filaments [6] [%]
1 | CCCC1O[C@@H]2C[C@H]3[C@@H]4CCC5=CC(=O)C=C[C@]5(C)[C@H]4[C@@H](O)CC3(C)C2(C(=O)COC(=O)OCCSSC[C@H](NC(C)=O)C(=O)NC(C(=O)N[C@H](C(=O)NC(C(=O)NCC(=O)NCC(=O)NC(CCCCN)C(=O)NC(C(=O)NC(CC(C)C)C(=O)NC(CC(=O)O)C(=O)NCC(=O)NC(CCC(N)=O)C(=O)NC(CC(=O)O)C(=O)N2CCCC2C(N)=O)C(C)C)C(C)C)C(C)C)C(C)C)O1 (some centres unmarked) [CAB-0] (Ac-C(X2)[ξV]V[ξV]GG[ξK][ξV][ξL][ξD]G[ξQ][ξD][ξP]-NH2) | retention of filaments after a nebulization event with shortened length |  |  |  |  |  |  |  | 
2 | CCCCCCCCCCCC(=O)N[C@@H](Cc1ccc(O)cc1)C(=O)NC(C(=O)N[C@H](C(=O)NC(C(=O)NCC(=O)NCC(=O)N[C@@H](CCC(=O)O)C(=O)NC(CCC(=O)O)C(=O)N[C@@H](CCC(=O)O)C(N)=O)C(C)C)C(C)C)C(C)C (some centres unmarked) [EPA] (Lauroyl-Y[ξV]V[ξV]GGE[ξE]E-NH2) | maintained their filamentous structure but a notable reduction in length was observed | 1 | around 287±147 nm | around 360±177 nm | slightly increased β-sheet signal | no change to their hydrogen bonding | maintained their β-sheet character | consistent breakdown over the course of 10 min | 
3 | CCCCCCCCCCCC(=O)N[C@@H](Cc1ccc(O)cc1)C(=O)NC(C(=O)N[C@H](C(=O)NC(C(=O)NCC(=O)NCC(=O)N[C@@H](CCCCN)C(=O)NC(CCCCN)C(=O)N[C@@H](CCCCN)C(N)=O)C(C)C)C(C)C)C(C)C (some centres unmarked) [KPA] (Lauroyl-Y[ξV]V[ξV]GGK[ξK]K-NH2) | formation of different morphologies in both populations | 40 | ~133±108 nm | ~196±113 nm | secondary structure transition from β-sheet to random coil character | weakened β-sheet signal | continued to display the weakened β-sheet signal in the reservoir group and the random coil character of the nebulized group | consistent breakdown over the course of 10 min | 
4 | CCCCCCCCCCCC(=O)N[C@@H](Cc1ccc(O)cc1)C(=O)NC(C(=O)N[C@H](C(=O)NC(C(=O)NCC(=O)NCC(=O)N[C@@H](CCCCNC(=O)CCOCCOCCOCCOCCOC)C(=O)NC(CCCCNC(=O)CCOCCOCCOCCOCCOC)C(N)=O)C(C)C)C(C)C)C(C)C (some centres unmarked) [OPA] (Lauroyl-Y[ξV]V[ξV]GGK(X1)[ξK](X1)-NH2) | shorter filaments are produced | 1.9 | ~174±103 nm | ~206±88 nm | increased β-sheet signals | increased β-sheet signals | maintained their β-sheet character | consistent breakdown over the course of 10 min | 
5 | CC(=O)O[C@H]1C(=O)[C@@]2(C)[C@H]([C@H](OC(=O)c3ccccc3)[C@]3(O)C[C@H](OC(=O)[C@H](O)[C@@H](NC(=O)c4ccccc4)c4ccccc4)C(C)=C1C3(C)C)[C@]1(OC(C)=O)CO[C@@H]1C[C@@H]2O [PTX, paclitaxel] |  |  |  |  |  |  |  |  | 1.5
